Results published in patent publication US10921325B2, “Composition for anticancer adjuvant comprising RIP3 expression promoter as active ingredient, method for screening anticancer adjuvant which promotes RIP3 expression and enhances sensitivity of anticancer agent, and method for monitoring sensitivity of anticancer agent” (AJOU UNIVERSITY INDUSTRY-ACADEMIC COOPERATION FOUNDATION, priority 2015, dated 2021).

Legend:
[1] = system: HeLa, MDA-MB231 and DLD-1 cancer cell lines; test: Sensitization to cancer cell death by combined treatment with demethylating agent and anticancer drug; assay type: cell-based
Procedure: (§1) Cell viability was determined using tetrazolium dye colorimetric test (MTT assay) at 570 nm.
The same number of HeLa, MDA-MB231 and DLD-1 cancer cell lines not treated with a drug were also grown, and then treated with the same concentration of an anticancer drug. The effect of the demethylating agent on sensitization to cell death was analyzed.

[2] = system: non-target cell line and shRIP3 cell line; test: Cell viability (MTT) of non-target and shRIP3 cell lines after combined treatment with demethylating agent and anticancer drug; assay type: cell-based, human
Procedure: (§2) A MISSION short-hairpin RNA (shRNA) plasmid that targets the coding region or 3′ UTR of hRIP3 mRNA (NM_006871) or a non-target control sequence (NM-027088) were obtained from Sigma-Aldrich. A Lentivirus plasmid was transfected into 293T cells (System Biosciences, LV900A-1) using Lipofectamine 2000 (Invitrogen, 11668019). Pseudoviral particles were collected at 2 days after transfection of the Lentivirus plasmid and infected into various cancer cells in the presence of polybrene (10 μg/mL).
as §1
(§3) Since a demethylating agent (5-AD or 5-AZA) is not a drug specific for a particular protein, it may cause expression of various proteins in addition to RIP3. […] After whether RIP3 was expressed was determined, a cell viability assay was performed.

[3] = system: RIP3 expression in non-target and shRIP3 cancer cell lines; test: RIP3 expression in non-target and shRIP3 cell lines treated with 5-AD (Western blotting); assay type: cell-based, human; conditions: treated twice with 5-AD for 4 days
Procedure: as §2, with “μg/mL). At 2 days after infection, infected cells were selected with puromycin, and RIP3 knockdown was confirmed by immunoblotting. Cells without expression endogenous RIP3 were afterwards treated with 5-AD for 4 days and analyzed by immunoblotting.” for “μg/mL).”
Cells were lysed in M2 buffer.
as §3

[4] = system: MDA-MB231 breast cancer cell line tumors; test: MDA-MB231 mouse xenograft model, combined treatment with 5-AD and Doxorubicin; assay type: in vivo, BALB/c nude mice
Procedure: In order to verify the sensitization effect induced by RIP3 expression in experimental animal models, the MDA-MB231 breast cancer cell line that expresses no RIP3 was injected into BALB/c nude mice to form tumors. Next, the mice were injected with 5-AD for 1 week, and then injected with Doxorubicin for 33 days, and a change in the volume of the tumor tissue was measured. […] In addition, the tumor tissue was isolated after the last drug treatment, and the mass thereof was measured. […] The tumor tissue subjected to combined treatment with 5-AD and Doxorubicin was prepared into a paraffin block which was then visualized by H&E staining, p-H2AX antibody staining, and TUNEL staining.

[5] = system: RIP3 expression in MDA-MB231 tumor tissue; test: RIP3 expression in isolated xenograft tumor tissue (RT-PCR, IHC); assay type: in vivo, BALB/c nude mice; conditions: group treated with 5-AD
Procedure: Immunohistochemistry was performed using the UltraVision LP Detection System TL-060-HD (Thermo Scientific, Bioanalytica) according to the manufactures instructions. Thin paraffin sections (4.5 μm) were deparaffinized in xylene and rehydrated in a graded series of ethanol-aqueous solutions. Antigen retrieval was done by heating the slides for 15 min in a microwave oven in 10 mM citrate buffer (pH 6.0). Endogenous peroxidase activity was blocked by incubation in 3% hydrogen peroxide in TBS for 10 min, and then the sections were incubated overnight at 4° C. in 1:300 dilutions of anti-RIP3 antibody. Chromogen was developed for 5 min with 3,3′-diaminobenzidine (TL-015-HD, Them© Scientific, Bioanalytica, Greece) solution and counterstained with Meyer's hematoxylin. Immunohistochemical staining was evaluated based on the proportion of stained cells and immunostaining intensity. H-score used in the present invention was obtained by multiplying the proportion of stained cells (i) and staining intensity graded 0 (negative), 1 (weak), 2 (moderate), or 3 (strong). H-score ranged from 0 to 300. Staining was carried out for tumor and normal tissues for each sample for the same time. Staining was interpreted by an experienced pathologist blinded to the clinical data.
In addition, RNA was extracted from the isolated tumor tissue and subjected to RT-PCR. […]

[6] = system: RIP3 expression in RIP3-silenced cancer cell lines; test: RIP3 expression in RIP3-silenced cancer cell lines treated with demethylating agent (Western blotting)
Procedure: Cells were lysed in M2 buffer. Equal amounts of cell extracts were analyzed by SDS-PAGE and immunoblotting, and visualized by enhanced chemiluminescence (ECL, Amersham). A variety of RIP3-silenced cancer cell lines (including liver cancer, cervical cancer, prostate cancer, brain cancer, ovarian cancer, skin cancer, lung cancer, breast cancer, blood cancer, colorectal cancer, and bladder cancer) were grown to a confluence of 10-20%, and then treated twice with 5-AD for 4 days, after which RIP3 expression patterns in the cell lines were analyzed by a Western blotting technique.

HT-29 cells = test: Viability (MTT) of RIP3-silenced HT-29 cells treated with anticancer drug; assay type: cell-based, human; conditions: 48 hours
Procedure: In order to identify the role of RIP3 in anticancer drug sensitivity, the HT-29 cell line which is a representative cancer cell line expressing RIP3 was used. To identity the function of RIP3, RIP3 expression was inhibited using the shRNA system and analyzed by a Western blotting technique.
In the present invention, in order to examine whether the RIP3 gene is associated with anticancer drug sensitivity, HT-29 cells transfected with RIP3 shRNA were treated with varying concentrations of doxorubicin and etoposide, and then the cell viability of the cancer cells was measured. Particularly, HT-29 cells transfected with RIP3 shRNA were treated with 2.5 μM and 5 μM of doxorubicin and 50 μM and 100 μM of etoposide, and then incubated for 48 hours. After the medium was replaced with a fresh medium containing 0.1 mg of MTT (3-([4,5-dimethylthiazol-2-yl]-2,5-diphenyltetrazolium bromide), the cells were further incubated for 2 hours. Colorimetric analysis was performed on a precipitate obtained by reducing a tetrazolium salt, in which viable cells is dissolved, into a purple formazan crystal. Next, the medium was removed, and the produced formazan crystal was dissolved in 500 μl of DMSO, and the absorbance was measured using an ELISA reader at 570 nm. Cell viability was expressed as a percentage relative to the control taken as 100% viability.

T47D cells = test: Viability (MTT) of RIP3-silenced T47D cells treated with anticancer drug; assay type: cell-based, human; conditions: 48 hours; for anticancer drug resistance (MTT assay): T47D RIP3-knocked down test group, versus control group; for cell death (MTT assay): T47D control group
Procedure: The T47D cell line which is a breast cancer cell line expressing RIP3 was used to identify the role of RIP3 in various kinds of cancel. First, the shRIP3 T47D cell line was prepared in the same manner as described in Example 7.
In order to examine whether RIP3 increases anticancer drug sensitivity in T47D breast cancer cells, an MTT assay was performed. A control group and a RIP3-knocked down test group were incubated with doxorubicin, etoposide and taxol at the concentrations shown in FIG. 15 (right) for 48 hours.

[7] = system: RIP3 expression in HeLa cervical cell line and DLD-1 colorectal cancer cell line; test: RIP3 expression at mRNA or protein level in HeLa and DLD-1 cells treated with demethylating agent; assay type: cell-based; conditions: HeLa and DLD-1 cell lines which expressed no RIP3
[8] = anticancer drug in combined treatment with the demethylating agent (5-AD or 5-AZA)
[9] = non-target cell line, anticancer drug combined with demethylating agent (5-AD)
[10] = HT-29 control group, doxorubicin 2.5 and 5 μM, etoposide 50 and 100 μM
[11] = HT-29 with RIP3 knocked down with shRNA, versus control group

SMILES	sensitization to cell death [1, 8]	sensitization to cell death [2, 9]	anticancer drug resistance (MTT assay) (T47D cells)	cell death (MTT assay) (T47D cells)	other results
N.N.[Cl][Pt][Cl] [Cisplatin, cisplatin]	showed the effect of sensitizing the cancer cell lines to cell death	showed the effect of sensitizing the cancer cell line to cell line			
CC[C@@]1(O)C(=O)OCc2c1cc1n(c2=O)Cc2cc3ccccc3nc2-1 [CPT]	showed the effect of sensitizing the cancer cell lines to cell death	showed the effect of sensitizing the cancer cell line to cell line			
Nc1ncn([C@H]2C[C@H](O)[C@@H](CO)O2)c(=O)n1 [5-AD, 5-aza-2′-deoxycytidine]					sensitization to cell death ([1]; cervical, breast, colorectal and bladder cancer cell lines treated with the anticancer drug after RIP3 induction by 5-AD): sensitized to cell death; RIP3 expression ([3]; non-target cell line): RIP3 expression was induced; RIP3 expression ([3]; shRIP3 cell line, Western blotting): RIP3 was not expressed; sensitization to cell death ([2]; shRIP3 cell line that expresses no RIP3, 5-AD combined with anticancer drug): the sensitization effect was inhibited; volume of the tumor tissue ([4]; 5-AD for 1 week then Doxorubicin for 33 days, combined treatment compared to Doxorubicin alone): significantly reduced; H&E staining, p-H2AX antibody staining and TUNEL staining of tumor tissue ([4]; combined treatment with 5-AD and Doxorubicin): the death of the cancer cells occurred by the combined treatment; mass of tumor tissue ([4]; tumor isolated after the last drug treatment, combined treatment with Doxorubicin and 5-AD): significantly reduced; RIP3 expression (RT-PCR) ([5]; RNA from isolated tumor tissue): increased; RIP3 expression (immunohistochemistry) ([5]; paraffin block of isolated tumor tissue): RIP3 expression was increased; RIP3 expression ([6]; cancer cell lines that expressed no RIP3, 5-AD 2 uM, treated twice for 4 days, Western blotting): RIP3 expression was induced
COc1cccc2c1C(=O)c1c(O)c3c(c(O)c1C2=O)C[C@@](O)(C(=O)CO)C[C@@H]3O[C@H]1C[C@H](N)[C@H](O)[C@H](C)O1 [Doxorubicin, doxorubicin]	showed the effect of sensitizing the cancer cell lines to cell death	showed the effect of sensitizing the cancer cell line to cell line	significantly increased compared to that of the control group	killed depending on the concentration	cell viability (HT-29 cells; [10]): the cell viability decreased depending on the concentration; cell viability (HT-29 cells; [11]): the cell viability significantly increased compared to that of the control group
O=C(O)C(Cc1c[nH]c2ccccc12)N1C(=O)c2ccccc2C1=O (stereo not shown) [RG108]					RIP3 expression [7]: RIP3 expression was induced
O=c1[nH]cc(F)c(=O)[nH]1 [5-FU]	showed the effect of sensitizing the cancer cell lines to cell death	showed the effect of sensitizing the cancer cell line to cell line			
COc1cc([C@@H]2c3cc4c(cc3[C@@H](O[C@@H]3O[C@@H]5CO[C@@H](C)O[C@H]5[C@H](O)[C@H]3O)[C@H]3COC(=O)[C@H]23)OCO4)cc(OC)c1O [Etoposide, etoposide]	showed the effect of sensitizing the cancer cell lines to cell death	showed the effect of sensitizing the cancer cell line to cell line	significantly increased compared to that of the control group	killed depending on the concentration	cell viability (HT-29 cells; [10]): the cell viability decreased depending on the concentration; cell viability (HT-29 cells; [11]): the cell viability significantly increased compared to that of the control group
Nc1ncn([C@@H]2O[C@H](CO)[C@@H](O)[C@H]2O)c(=O)n1 [5-AZA, 5-azacytidine]					RIP3 expression [7]: RIP3 expression was induced; RIP3 expression ([6]; cancer cell lines of Example 3, treated twice for 4 days): induced RIP3 expression
CC(=O)O[C@H]1C(=O)[C@@]2(C)[C@H]([C@H](OC(=O)c3ccccc3)[C@]3(O)C[C@H](OC(=O)[C@H](O)[C@@H](NC(=O)c4ccccc4)c4ccccc4)C(C)=C1C3(C)C)[C@]1(OC(C)=O)CO[C@@H]1C[C@@H]2O [Paclitaxel, paclitaxel]	showed the effect of sensitizing the cancer cell lines to cell death		significantly increased compared to that of the control group	killed depending on the concentration	
